From US8748598B2, “Analogs of 3-O-acetyl-11-keto-beta-boswellic acid” (Laila Nutraceuticals, priority 2004, dated 2014)
Values after ≈ are worked out from the molar mass of the structure shown. Values joined by “and” are separate entries in the source; they are usually repeats but may differ in a detail not shown here. Equal values may be shown once. “Also recorded” adds a separate entry of the source. Read-outs that look alike come from different tables or passages of the source. One block for each compound: values may come before it.

Columns and labels:
MDA-MB-231 [1] = experiment: MTT cell proliferation assay, MDA-MB-231; assay type: cell-based, human; conditions: Table 4
Description: (§1) MTT [3-(4,5-dimethylthiazol-2-yl)-2,5-diphenyltetrazolium bromide] incorporation based cell proliferation assay was performed as described previously (Reference). The cytotoxic efficacy of some analogs was evaluated in different cell lines by MTT cell proliferation assay kit (Roche Applied Sciences, Germany). The assay was carried out according to the instruction provided by the vendor. Briefly, in brief, equal numbers of cells was plated in 96-well flat-bottomed plates in 100 μl of medium and were exposed to different analogs selected from 1 to 63 at various concentrations up to 10 μg/ml for a period of three days. Vehicle control culture wells received only a maximum of 0.5% DMSO. Thereafter, 0.5 mg/ml of MTT reagent was added to each well and the microplate was incubated further for 4 h at 37° C. in presence of 5% CO2. Finally, the cells were solubilized by adding solubilizing solution and allowed to incubate at 37° C. overnight. After complete solubilization of the formazan crystals the absorbance was read at 540 nm in a microplate reader (BioRad, USA). The results (mean OD±SD) obtained from quadruplicate wells were used in calculation to determine the inhibition of cell proliferation (50% of inhibitory concentration, IC50) of the test compounds.
(§2) The cytotoxic properties of some analogs were evaluated by MTT incorporation assay. The methodology of the assay procedure was the same as mentioned in example 41.

MCF-7 = experiment: MTT cell proliferation assay, MCF-7; assay type: cell-based, human; conditions: Table 4
Description: as §1, §2

VEGF = conditions: HUVEC, 24 h, immunoblot; listed as LI51255
Description: Equal number of HUVEC human primary endothelial cells was plated in 35 mm culture dishes. The cells exposed to either 0.5% DMSO as vehicle or LI-51255 for 24 h. The cells were lysed in cell lysis buffer. The protein concentration of each lysate was determined by the BCA method (BioRad, Hercules, Calif.). Equal amount of cell lysates proteins was resolved in SDS-PAGE and the transferred proteins on nitrocellulose membrane were reacted with human anti-VEGF antibody (Cell Signaling Technology, Beverly, Mass.) overnight at 4° C. Immunoreactive proteins were detected using were developed with Super SignalWest Pico Chemiluminescent substrate (Pierce Biotechnology Inc.) and the band intensities were analyzed using Molecular Imaging Software, version 4.0 (Eastman Kodak Company, Rochester, N.Y.). Relative density was determined by normalization of the density of each blot with that of corresponding β-actin.

[2] = system: Human umbilical vein endothelial cells (HUVEC); experiment: In vitro capillary-like tube formation assay; assay type: cell-based; conditions: HUVEC on Cultrex, 1, 2.5 and 5 μg/ml, 16 h; listed as LI-51255
Description: In vitro capillary formation assay was performed with Human umbilical vein endothelial cells (HUVEC), cultured on 10 mg/ml basement membrane extract (BME—Cultrex®, R&D Systems, USA) bed. The protocol of in vitro endothelial tube formation assay was the same as described earlier with some modifications (Reference). Briefly, four hundred microliters of Cultrex was coated at 4° C. in each well of 24-well culture plate and allowed to gel at 37° C. for 1 h. HUVECs were plated at a density of 7.5×10^4 cells per well with 400 μl of DMEM supplemented with 10% fetal bovine serum and 4.5 g/l D-glucose. The cells were then treated with either 0.5% DMSO or different concentrations of LI-51255 for 16 hours. Pictures were taken under a Nikon Eclipse TS 100 microscope equipped with a Nikon Coolpix camera (FIG. 1B).

AKT pathway = AKT pathway western immunoblot in MDA-MB-231 cells; assay type: cell-based, human; conditions: MDA-MB-231, 10 μg/ml, 0-240 min
Description: Equal number of MDA-MB-231 human breast tumor cells (ER-) was plated in 25 cm^2 cell culture flasks. The cells treated with either 0.5% DMSO as vehicle or 10 μg/ml of LI-51255 for 0, 5, 10, 20, 30, 60, 120 and 240 min. The cells were lysed in cell lysis buffer.

MDA-MB-231 [3] = experiment: MDA-MB-231 clone (colony) formation in vitro; assay type: cell-based, human; conditions: 8 days
Description: Inhibitory efficacy in clone formation of LI-51255 was tested by following the procedure described earlier with some modifications (Wu et al. 2005). Briefly, MDA-MB-231 cells were harvested and seeded into 6-well plates (100 cells/ml). The cells were allowed to grow for 4 days and thereafter, the cells were incubated with DMEM containing either 0.5% DMSO or 25 μg/ml AKBA or different concentrations (1.0, 1.5, 2.0, 2.5 μg/ml) of LI-51255 for further 8 days. Fresh medium containing test agents was replaced at every 24 h. Finally, the wells were washed three times with PBS and fixed in methanol for 15 min. The cells were stained with Giemsa stain and observed under microscope. The image of the stained wells were captured digitally (Kodak Image Station 4000MM, Carestream Health Inc., New Haven, Conn.) and number of colonies were counted and analyzed by using NIH Image J software.

[4] = system: B16 murine melanoma cells; experiment: Cell cycle analysis by flow cytometry; assay type: cell-based; conditions: 24 h
Description: For flow cytometry, cells were harvested after the treatment period, washed with phosphate buffered saline (PBS), and adjusted the cell count at 2×10^6 cells per milliliter. The cells were fixed in 70% ethanol for 30 min at 4° C. Cells were then washed two times with PBS and stained with 0.5 μg/ml propidium iodide at 37° C. for 30 min and analyzed by flow cytometry. Data were acquired on a FACS Scan flow cytometer (Becton Dickinson) and analyzed by using the Cellquest software.

[5] = system: B16 F0 melanoma xenograft; experiment: B16 F0 melanoma xenograft model; assay type: in vivo, C57B6J mice; conditions: twelve days; for % reduction of tumor burden (w.r.t control): listed as LI-51255
Description: In vivo efficacy of LI-51255 against melanoma growth was evaluated in B16 F0 melanoma xenograft model of C57B6J mice. C57B6J mice of 6 weeks age (body weight 18-22 g) were purchased from National Institute of Nutrition (NIN), Hyderabad (India). Animals study protocols were approved by Institutional Ethics Committee (IAEC). All the studies were performed in compliance with the Committee for the Purpose of Control and Supervision of Experiments on Animals (CPCSEA) guidelines and OECD guidelines. Animals were allowed free access to standard feed and provided charcoal filtered and UV exposed water ad libitum. The animals were maintained at a controlled temperature (24-26° C.), humidity (45-70%), and 12 h/12 h of light/dark cycle.
To induce the melanoma tumor formation, sub-confluent B16F0 cells were harvested by brief trypsinization and 1×10^6 cells were injected subcutaneously in 0.2 mL phosphate-buffered saline. Drug treatment was started after development of palpable tumors (3-5 days after implantation of the cells). Drugs were prepared in phosphate-buffered saline (10% DMSO, v/v) and either 75 mg/kg of DTIC or different doses of LI-51255 (10 or 20 mg/kg) was administered daily through intra-peritoneal route. Vehicle treated control animals received only 10% DMSO in phosphate buffered saline. After twelve days of treatment, the animals were sacrificed by CO2 inhalation and tumors were excised and weighed.

[6] = system: Freund's Adjuvant-induced arthritis in Wistar Albino rats; experiment: Freund's adjuvant-induced arthritis, paw edema; assay type: in vivo; conditions: 10 mg/kg daily oral for 30 days; edema 13 days after Freund's Adjuvant
Description: The Wistar Albino rats were divided into four groups with […] each group. The two treatment groups, each containing 6 animals, were orally supplemented with one of the two analogs namely glycinate of AKBA (10) or piperazine amide of AKBA (23) in 1% carbomethylcellulose (CMC) at a daily dose of 10 mg/kg for 30 days. The control group of animals received same volume of 1% CMC orally and a positive control group received 10 mg/kg daily dose of prednisolone for direct comparison. Following the 30 day treatment and one hour after the last dose all the animals were challenged with 0.1 mL of 1% solution of Freund's Adjuvant through a subcutaneous injection in the sub-plantar region of left hind paw. The paw volume was measured using a plethymograph. The difference between the paw volumes measured before and 13 days after the Freund's Adjuvant injection was taken as edema volume. The percentage inhibition was calculated by comparing the mean edema of the control group and treatment groups.

Brine shrimp = Brine shrimp lethality; assay type: in vivo; conditions: for IC50: read-out: Brine shrimp lethality IC50
Description: The Brine shrimp lethality was evaluated for the analogs 1 to 28 and compared the activities with those of AKBA and a standard compound podophyllotoxin. The data was summarized already disclosed in our earlier application Ser. No. 10/540,257 which is granted under U.S. Pat. No. 7,625,947 which is incorporated herein by reference. The magnitude of Brine shrimp lethality obtained for the analogs has significant correlation with 5-LOX inhibitory activity.

Jurkat = assay type: cell-based, human; set-up: minimum inhibitory concentration (MIC) Jurkat: unit not given here; conditions: MTT assay
Description: as §1, §2

PC3M = experiment: Cytotoxicity MTT assay, PC3M; assay type: cell-based, human; set-up: minimum inhibitory concentration (MIC) PC3M: unit not given here; conditions: for minimum inhibitory concentration (MIC) PC3M: MTT assay
HePG2 = experiment: Cytotoxicity MTT assay, HePG2; assay type: cell-based, human; set-up: unit not given here
Description: as §1, §2

[7] = 10 mg/kg daily intra-peritoneal
[8] = 20 mg/kg daily intra-peritoneal

IC50 values MDA-MB-231 (MDA-MB-231 [1]): 3.45 µg/mL (≈ 6.22 µM)
IC50 values MCF-7 (MCF-7): 12.98 µg/mL (≈ 23.4 µM)
Compound: CC(=O)OC1CC[C@@]2(C)C(CC[C@]3(C)C2C(=O)C=C2C4[C@@H](C)[C@H](C)CC[C@]4(C)CC[C@]23C)[C@@]1(C)C(=O)NCCN (stereo partly drawn) [Analog 21, N-(3-O-Acetyl-11-keto-[beta]-boswelloyl)-ethylenediamine]
VEGF protein expression (VEGF): strongly inhibited
capillary-like tube formation [2]: dose-dependent inhibition; also recorded: inhibits capillary-like tube formation
AKT protein expression (AKT pathway): remains the same
phospho-raf (ser 259) expression (AKT pathway): up-regulation
phosphorylated AKT (ser 473) protein expression (AKT pathway; listed as LI-51255): deactivates AKT pathway; also recorded: time dependent down regulation
MDA-MB-231 colony formation (MDA-MB-231 [3]; 1.0, 1.5, 2.0, 2.5 μg/ml, listed as LI-51255): potentially inhibits the growth and development; also recorded: inhibition of MDA-MB-231 colony formation
cell cycle progression [4]: arrests the growth of B16 murine melanoma cells at the subG1 phase
G1 ([4]; LI-51255 5 (mg/ml)): 74.74
G2/M ([4]; LI-51255 5 (mg/ml)): 12.2
S ([4]; LI-51255 5 (mg/ml)): 11.18
Sub G1 ([4]; LI-51255 5 (mg/ml)): 1.7
G1 ([4]; LI-51255 10 (mg/ml)): 60.25
G2/M ([4]; LI-51255 10 (mg/ml)): 9.19
S ([4]; LI-51255 10 (mg/ml)): 10.87
Sub G1 ([4]; LI-51255 10 (mg/ml)): 19.76
Average weight of tumor [5, 7]: 4.575 gm
% reduction of tumor burden (w.r.t control) [5, 7]: 27.25% and 27.253%
Average weight of tumor [5, 8]: 3.050 gm
% reduction of tumor burden (w.r.t control) [5, 8]: 51.5% and 51.502%

Compound: CC(=O)OC1CCC2(C)C(CCC3(C)C2C(=O)C=C2C4C(C)C(C)CCC4(C)CCC23C)C1(C)C(=O)N1CCNCC1 (centres unmarked) [Analog 23]
inhibition of paw edema [6]: 16.4% and 16.3%
IC50 (Brine shrimp; in vivo): 880 nM
IC50 values MDA-MB-231 (MDA-MB-231 [1]): IC50 at 5.53 μg/ml
IC50 values MCF-7 (MCF-7): IC50 at 9.03 μg/ml
minimum inhibitory concentration (MIC) Jurkat (Jurkat): 50
cytotoxicity against PC3M (PC3M): significantly more potent
minimum inhibitory concentration (MIC) PC3M (PC3M): 10
minimum inhibitory concentration (MIC) HePG2 (HePG2): 40

Compound: COc1cc([C@@H]2c3cc4c(cc3[C@H](O)[C@H]3COC(=O)[C@H]23)OCO4)cc(OC)c1OC [podophyllotoxin, reference compound]
IC50 (Brine shrimp): 3000 nM

Compound: 3-O-acetyl-11-keto-β-boswellic acid [AKBA, reference compound]
MDA-MB-231 colony formation (MDA-MB-231 [3]; 25 μg/ml): inhibition of MDA-MB-231 colony formation

Compound: CC(=O)O[C@@H]1CC[C@@]2(C)C(CC[C@]3(C)C2C(=O)C=C2C4[C@@H](C)[C@H](C)CC[C@]4(C)CC[C@]23C)[C@@]1(C)N (some centres unmarked) [Analog 25]
inhibitory capabilities against brine shrimp (Brine shrimp; in vivo): potent inhibitory capabilities
IC50 (MDA-MB-231 [1]; Homo sapiens, MDA-MB-231): 13.2 µg/mL (≈ 27.3 µM)
IC50 (MCF-7; Homo sapiens, MCF7): 14 µg/mL (≈ 28.9 µM)
minimum inhibitory concentration (MIC) Jurkat (Jurkat): 50
cytotoxicity against PC3M (PC3M): significantly more potent
minimum inhibitory concentration (MIC) PC3M (PC3M): 30
minimum inhibitory concentration (MIC) HePG2 (HePG2): 50
